The values that follow come from patent US20080004695A1, “EVEROLIMUS/PIMECROLIMUS-ELUTING IMPLANTABLE MEDICAL DEVICES” (Abbott Cardiovascular Systems Inc., priority 2006, published 2008).

SMILES strings stand for the structures.

The nature of data set [1]: 24 hour release of everolimus and pimecrolimus from dual-coated stent in porcine serum. The format is physicochemical. To be noted: EVAL-based dual-coated 12 mm Vision stent. How it is done:
Using the method set forth in Example 1, a 12 mm Vision™ stent was similarly coated with everolimus and pimecrolimus. The 24 hour release of everolimus and pimecrolimus in porcine serum was then measured using methods known in the art. […] For pimecrolimus, 12.4 μg of an expected 60.6 μg of pimecrolimus was released over 24 hours resulting in 20.5% release.

Data set [2] in a line: in vivo release from PVDF-HFP-based coated stent implanted in a pig. To be noted: PVDF-HFP matrix stent implanted in a pig, day 7. The protocol: A 12 mm Vision™ stent was cleaned in a bath of isopropyl alcohol and treated in a plasma cleaner to strip the top layer of molecules from the stent for better coat adhesion. The stent was then spray-coated with a primer solution consisting of 2% PBMA. The coated stent was dried in a convection oven at 80° C. for 0.5 hours.
The stent was then spray-coated with a drug reservoir solution consisting of PVDF-HFP, pimecrolimus and everolimus. A drug:polymer ratio of 1:3.5 of both pimecrolimus and everolimus to PVDF-HFP was used to coat the stent in order to obtain 64 μg of pimecrolimus and 64 μg of everolimus in the final coating. Spray coating parameters and the solvent were identical to those used for coating with the primer layer.
The stent was implanted in a pig and 1, 3 and 7 day release rates were obtained and compared with 24 hour release rates in porcine serum. […] By day 7, release of both drugs was 30%.

As for `CO[C@H]1C[C@@H]2CC[C@@H](C)[C@@](O)(O2)C(=O)C(=O)N2CCCC[C@H]2C(=O)O[C@H]([C@H](C)C[C@@H]2CC[C@@H](OCCO)[C@H](OC)C2)CC(=O)[C@H](C)/C=C(\C)[C@@H](O)[C@@H](OC)C(=O)[C@H](C)C[C@H](C)/C=C/C=C/C=C/1C` [everolimus], in data set [1], the “% release over 24 hours” value is reported as 19.7% and the “amount released over 24 hours” value came out at 12.2 µg. Besides, the “in vivo percent release” value in data set [2] was found to be 30%.
Consider `CC[C@@H]1/C=C(\C)C[C@H](C)C[C@H](OC)[C@H]2O[C@@](O)(C(=O)C(=O)N3CCCC[C@H]3C(=O)O[C@H](/C(C)=C/[C@@H]3CC[C@H](Cl)[C@H](OC)C3)[C@H](C)[C@@H](O)CC1=O)[C@H](C)C[C@@H]2OC` [pimecrolimus], for which, in data set [1], the “% release over 24 hours” value was 20.5% and the “amount released over 24 hours” value is 12.4 µg. Also, in data set [2], the “in vivo percent release” value amounted to 30%.
